The test system of data set [1] is LacGL1 laccase from Ganoderma lucidum, expressed in Pichia pastoris. The data set is classed as biochemical. As for the experimental part:
(§1) The laccase activity was measured based on a modified method of Ters et al. (2009). The laccase activity was defined as the amount of the enzyme required to oxidise 1 μmol of ABTS per minute at 25° C., and pH 4.7. The assay mixture contained: 0.1 M citrate-phosphate buffer (255 μL, pH 4.7), ABTS (5 μL, 4 mM (ABTS stock solution)), and pre-diluted laccase (5 μL) that ensured the linear range of Michaelis-Menten kinetics. The oxidation of ABTS was monitored at 420 nm (ε420=36800 M^−1cm^−1) for 2 min. in an Infinite 200 microtiter plate reader (Tecan, Salzburg, Austria). Laccase activity assays on the substrates: hydroquinone (248 nm), 2.6-dimethoxyphenol (470 nm), and guaiacol (436 nm) was done similarly with the substrate concentration as described in Table 2 using the following extinction coefficient values: 17.542 M^−1cm^−1, 35.645 M^−1cm^−1, and 6.400 M^−1cm^−1, respectively (Minussi et al. 2007). The data collection was monitored by the program Tecan i-control version 1.5.14.0 (Tecan, Salzburg, Austria).

Another data set deals with fungal laccase. Type of data set: biochemical, Ganoderma lucidum. As to the method: as §1
Data set [2] deals with laccase from the crude extract of G. lucidum (Lac_GLCE). Type of data set: biochemical, Ganoderma lucidum. As to the method: as §1
A short description of data set [3]: Michaelis constant (Km) of laccase for ABTS, Hanes-Wolf plot. Type of data set: biochemical. As to conditions: substrate ABTS.
Data set [4] is described as follows: Laccase-cellulase catalyzed hydrolysis of pretreated biomass, glucose release. The data set is classed as biochemical. As to conditions: with cellulase 1 or 2, pH 5.1, 50° C., 30 hour, p<0.05. As to the method:
FIG. 13. A graphical comparison of glucose released over time during hydrolysis of STEX-SCB at pH 5.1 and 50° C. by each of commercial enzyme preparations Cellulase 1 (CC2) [A]; or Cellulase 2 [B], either alone, or in combination with a laccase enzyme; the tested laccases being respectively LacGL1 and GLlac1 (LacJooSS; Q9HG17) derived from G. lucidum; and laccases derived from Agaricus bisporus (Sigma 40452), Pleurotus ostreatus (Sigma 75117) and, Trametes versicolor (Sigma 51639).
(§2) The commercial fungal laccases were purchased as lyophilized protein samples from Sigma Aldrich. A solution of each of the above 5 laccases was prepared in a citric buffer containing 20% of glycerol (pH 5.1, 100 mM).
(§3) Two different commercially available cellulase enzyme preparations used in the comparative study were “Cellulase 1” and “Cellulase 2”, which were tested in combination with each of the laccases listed above.
(§4) The three different types of pretreated biomass used in the comparative study were sugarcane bagasse, barley straw and wheat straw. The source and pre-treatment of the sugarcane bagasse by steam explosion was as set out in Example 9. […] The composition of the dry and the pretreated biomass were determined according to the US National Renewable Energy Laboratory (NREL) procedures (Sluiter et al, 2010).
(§5) The laccase-cellulase catalyzed hydrolysis of the pretreated biomass samples to release glucose was performed as follows: Hydrolysis of 5% (w/v) samples of pretreated sugarcane bagasse, barley straw, and wheat straw biomass were assayed using an Enzyme/Substrate (E/S) ratio of 0.064% w/w for laccases and of 0.4% w/w for each commercial cellulase preparation in each hydrolysis reaction. The E/S dosage was based on the total protein concentration used, as determined using Pierce BCA (BiCinchoninic Acid) protein assay kit microplate procedure according to manufacturer's instruction (Thermo Fisher Scientific, Rockford, US). […]
(§6) Laccase and cellulase-mediated hydrolysis of the 3 biomass forms, measured as glucose release, are shown graphically in FIGS. 13, 14 and 15. […]

Assay in data set [5]: as above
Type of data set: biochemical. Conditions: with cellulase 1 or 2, pH 5.1, 50° C., 30 hour, p<0.05. As to the method: FIG. 14. A graphical comparison of glucose released over time during hydrolysis of pre-treated barley straw at pH 5.1 and 50° C. by each of commercial enzyme preparations Cellulase 1 (CC2) [A]; or Cellulase 2 [B], either alone, or in combination with a laccase enzyme; the tested laccases being respectively LacGL1 and GLlac1 (LacJooSS; Q9HG17) derived from G. lucidum; and laccases derived from Agaricus bisporus (Sigma 40452), Pleurotus ostreatus (Sigma 75117) and, Trametes versicolor (Sigma 51639).
as §2, §3, §4, §5, §6
This is another data set of the same source.

Assay in data set [6]: as above
The data set is classed as biochemical. Conditions: with cellulase 1 or 2, pH 5.1, 50° C., 30 hour, p<0.05. As for the experimental part:
FIG. 15. A graphical comparison of glucose released over time during hydrolysis of pre-treated wheaty straw at pH 5.1 and 50° C. by each of commercial enzyme preparations Cellulase 1 (CC2) [A]; or Cellulase 2 [B], either alone, or in combination with a laccase enzyme; the tested laccases being respectively LacGL1 and GLlac1 (LacJooSS; Q9HG17) derived from G. lucidum; and laccases derived from Agaricus bisporus (Sigma 40452), Pleurotus ostreatus (Sigma 75117) and, Trametes versicolor (Sigma 51639).
as §2, §3, §4, §5, §6
The source holds these as a separate data set.

For data set [7] the following is noted: cited from earlier work; for Km: ABTS, expressed in Pichia pastoris (Sun et al., 2012).

Where two headings read alike, the source gives them in different places.

Turning to `O[C@H](CS)[C@H](O)CS` (racemic) [Dithiothreitol], the Inhibition (in data set [1] (0.5 mM); in the data set on fungal laccase (0.5 mM); in data set [2] (0.5 mM)) was 100% in each case.

Turning to `O=C(O)CN(CCN(CC(=O)O)CC(=O)O)CC(=O)O` [EDTA], the Inhibition in data set [1] is reported as 16%; in the data set with fungal laccase, 16-30%; in data set [2] it was 30%.

As for `[F-].[Na+]` [Sodium fluoride], the Inhibition was 8% in data set [1] (0.0001 mM); 13% in data set [1] (0.0005 mM); 19% in data set [1] (0.001 mM); 22% in data set [1] (0.01 mM); 46% in data set [1] (0.1 mM); 46-56% in the data set with fungal laccase (0.1 mM). The Inhibition in data set [2] (0.0001 mM) worked out at 23%; in data set [2] (0.0005 mM), 24%; in data set [2] (0.001 mM) it was 28%; in data set [2] (0.01 mM), 38%; in data set [2] (0.1 mM), 56%.

B1: Ganoderma lucidum CBS229.93 laccase: Native laccase secreted by Ganoderma lucidum CBS229.93, about 62.5 kDa (protein, listed as Ganoderma lucidum)
chain: MAKFQSLLSCVTLLFAASAYAGIGPKTDLTISNADVAPDGYTRAAVVVNGVFPAPLITGNKGDRFQLNVIDQMTNHTMLKSTSIHWHGFFQKGTNWADGPAFINQCPISSGHSFLYDFQVPDQAGTFWYHSHLSTQYCDGLRGPFVVYDPKDPLKKLYDIDDDSTVITLTDWYHVAARLGPRFPLGSDSTLINGLGRSTTNVTADLAVINVTQGKRYRFRLVSLSCDPNYTFSIDDHNMTVIEADGIETQPVTVNAIQIFSAQRYSFVLTANQTIDNYWIRANPNFGNVGFTDGINSAILRYAGADPVEPTTSQQTTQNLLNEVDLHPFVPKRTPGQPTQGGVDTAINMVFNFNGSNFFINNASFVPPTVPVLLQILSGAQAAQDLLPSGSVYTLPVNKSIELTFPATANAPGAPHPFHLHGHAFAVVRSAGSTVYNYDNPVWRDVVSTGTPAAGDNVTIRFQTDNPGPWFLHCHIDFHLEAGFAVVFAEDPTDTSLANPVPKAWSDLCPTYDALSVDDQ
As for B1, the Km in data set [3] (pH 5) and in data set [3] (laccase expressed in Ganoderma lucidum CBS229.93 (native)) was 107 µM throughout.

B2: GLlac1: Laccase from Ganoderma lucidum strain 7071-9 (UniProt Q9HG17, SEQ ID NO: 29), expressed in Pichia pastoris (protein, listed as Ganoderma lucidum)
chain: MVKFQSLLSCVTLLFAASAHAGIGPKADLTISNANIAPDGYTRAAVVVNGVFPGPLITGNKGDRFQLNVIDQLTNHTMLKTTSIHWHGFFQKGTNWADGPAFINQCPIASGHSFLYDFQVPDQAGTFWYHSHLSTQYCDGLRGPFVVYDPKDPLKGLYDVDNDSTVITLSDWYHVAARLGPSFPLGSDSTLINGLGRSTTNATAGLAVINVTQGKRYRFRLVSLSCDPNYTFSIDGHDMSVIEADGIATQPVTANAIQIFSAQRYSFVLTANQTIGNYWIRANPSFGNIGFTNGINSAILRYSGADPIEPTTAQQTTQNLLNEVDLHPFVAKQTPGRATQGGTDVAINMVFNFNGSNFFINNASFTPPTVPVLLQILSGAQAAQDLLPSGSVYTLPINKSIELTFPATVNAPGAPHPFHLHGHSFAVVRSAGSTEYNYNNPVWRDVVSTGTPAAGDNVTIRFQTDNPGPWFLHCHIDFHLEAGFAVVFAEDTADTSLANHVPQAWSDLCPTYDALSADDH
As for B2, the “glucose release compared to the other tested laccases” value in data set [4], in data set [5] and in data set [6] was “significantly enhanced” in each case. Further, the Km is 995 µM in data set [7] and 996 µM in data set [7] (listed as GILCC1). In addition, the pH optimum in data set [7] (literature) is given as 2.6.

Broadly, the Inhibition is the relative decrease from the control value, in per cent. A low value points to a weak effect. What is called Km is the concentration of substrate that gives half-maximal velocity.
